Measured values taken from patent publication US7163589B2 (priority 2001, dated 2007).

System: Mouse immunoglobulin (IgG)

COC(F)(F)C(F)(F)C(F)(F)C(F)(F)F [HFE-7100, methyl nonafluorobutyl ether]
Effect on protein conformation (denaturation): changes the conformation of the proteins
